Data reported in publication PMC3985486 (Biochemistry, 2014).
Converted amounts (≈) assume the structure as drawn.

Legend:
[1] = system: S. aureus strain ATCC 29213; experiment: Broth microdilution MIC, S. aureus; format: cell-based, Staphylococcus aureus
[2] = system: E. faecalis strain ATCC 29212; experiment: Broth microdilution MIC, E. faecalis; format: cell-based, Enterococcus faecalis
[3] = Staphylococcus aureus, ATCC29213
[4] = Staphylococcus aureus, ATCC29213, pH 5.8
[5] = Staphylococcus aureus, ATCC29213, pH 7
[6] = Enterococcus faecalis, ATCC29212, pH 5.8, E. faecalis 29212, pH 5.8
[7] = Enterococcus faecalis, ATCC29212, pH 7, E. faecalis 29212, pH 7

Row | MIC ([1]; S. aureus 29213, folinic acid 0.1 μg/mL added) [µg/mL] | MIC ([1]; S. aureus 29213, pH 5.8) [µg/mL] | MIC ([1]; S. aureus 29213, pH 7) [µg/mL] | MIC ([2]; E. faecalis 29212, folinic acid 0.1 μg/mL added) [µg/mL] | MIC ([2]; E. faecalis 29212, pH 5.8) [µg/mL] | MIC ([2]; E. faecalis 29212, pH 7) [µg/mL] | MIC [1, 3] [µg/mL] | MIC [1, 4] [µg/mL] | MIC [1, 5] [µg/mL] | MIC [2, 6] [µg/mL] | MIC [2, 7] [µg/mL] | increase in MIC in acidic environment ([1]; S. aureus, acidic pH vs pH 7) | increase in MIC in acidic environment ([2]; E. faecalis, acidic pH vs pH 7) | shift (increase) in MIC with exogenous folinic acid ([2]; E. faecalis, folinic acid in media vs none) | SMILES
1 | 1 (≈ 0.69 µM) | 1 (≈ 0.69 µM) | 1 (≈ 0.69 µM) | 2 to 4 | 1 to 2 | 1 to 2 |  |  |  |  |  |  |  |  | CN[C@H](CC(C)C)C(=O)N[C@H]1C(=O)N[C@@H](CC(N)=O)C(=O)N[C@H]2C(=O)N[C@H]3C(=O)N[C@H](C(=O)N[C@H](C(=O)O)c4cc(O)cc(O)c4-c4cc3ccc4O)[C@H](O)c3ccc(c(Cl)c3)Oc3cc2cc(c3O[C@@H]2O[C@H](CO)[C@@H](O)[C@H](O)[C@H]2O[C@H]2C[C@](C)(N)[C@H](O)[C@H](C)O2)Oc2ccc(cc2Cl)[C@H]1O [VAN]
2 |  |  |  |  |  |  | 0.06 (≈ 0.123 µM) | 0.25 (≈ 0.514 µM) | 0.03 to 0.06 (≈ 0.0617 to 0.123 µM) | 0.125 to 0.25 (≈ 0.257 to 0.514 µM) | 0.06 (≈ 0.123 µM) |  |  |  | CCC[C@H]1c2ccccc2C=NN1C(=O)/C=C/c1cc(Cc2cnc(N)nc2N)cc(OC)c1OC (racemic) [RAB, (S,E)-3-{5-[(2,4-diaminopyrimidin-5-yl)methyl]-2,3-dimethoxyphenyl}-1-[1-propylphthalazin-2(1H)-yl]-2-propen-1-one]
3 |  |  |  |  |  |  | 2 to 4 (≈ 6.89 to 13.8 µM) | 8 (≈ 27.6 µM) | 2 (≈ 6.89 µM) | 1 (≈ 3.44 µM) | 0.125 to 0.25 (≈ 0.431 to 0.861 µM) | 2–3 fold | 2–3 fold | up to 1 fold | COc1cc(Cc2cnc(N)nc2N)cc(OC)c1OC [TMP, trimethoprim]
